Data from patent publication US4593104A, “2-halo-N-(azole-1-yl-methyl)-substituted acetanilides” (BASF Aktiengesellschaft, priority 1976, dated 1986).

Tests used:
Cyper. escul. [1] = assay: postemergence application in the greenhouse, % damage; format: in vivo, Cyperus esculentus
Description: (§1) The vessels employed were plastic flowerpots having a volume of 300 cm^3; the substrate was a sandy loam containing about 1.5% humus. The seeds of the test plants (see Table 1) were sown shallow, and separated according to species. In the case of Cyperus esculentus, pregerminated tubers were planted. In the preemergence treatment, the active ingredients were then immediately applied to the surface of the soil. They were suspended or emulsified in water as the vehicle, and sprayed through atomizing nozzles. After the agents had been applied, the vessels were lightly sprinkler-irrigated to set germination and growth going, and to activate the chemical agents. The vessels were then covered with transparent plastic hoods until the plants had taken root. This cover ensured uniform germination of the test plants (to the extent that this was not impaired by the chemicals), and prevented readily volatile substances from evaporating.
(§2) For postemergence treatment, the plants were first grown to a height of from 3 to 10 cm, depending on their habit, before treated. Hoods were not placed on the pots. The experiments were set up in the greenhouse, hotter areas (25° to 40° C.) being preferred for heat-loving species, and 15° to 30° C. for plants from moderate climates. The experiments were carried out for from 4 to 6 weeks. During this period the plants were tended and their reaction to the various treatments was assessed. The following tables contain the substances investigated, the application rates in kg/ha of active ingredient, and the test plant species. Assessments were made on a 0 to 100 scale, 0 denoting no damage or normal emergence, and 100 denoting no emergence or complete destruction of at least the visible plant parts.

Solanum nigrum = assay: preemergence treatment in the greenhouse, % damage; format: in vivo
Description: as §1, §2

Setaria spp. [2] = assay: preemergence treatment in the greenhouse, % damage; format: in vivo
Description: as §1, §2

Euph. gen. = assay: preemergence treatment in the greenhouse, % damage; format: in vivo
Description: as §1, §2

Amar. retro. = assay: preemergence treatment in the greenhouse, % damage; format: in vivo
Description: as §1, §2

Echin. c.g. = assay: preemergence treatment in the greenhouse, % damage; format: in vivo
Description: as §1, §2

Matric. spp. [3] = assay: postemergence application in the greenhouse, % damage; format: in vivo
Description: as §1, §2

Setaria spp. [4] = assay: as above; format: in vivo
Description: as §1, §2

Avena fat. = assay: as above; format: in vivo
Description: as §1, §2

Chrys. seget. = assay: as above; format: in vivo
Description: as §1, §2

Alopec. myosur. [5] = assay: as above; format: in vivo
Description: as §1, §2

Stell. med. [6] = assay: as above; format: in vivo
Description: as §1, §2

Gossyp. hirs. = assay: preemergence treatment in the greenhouse, % damage; format: in vivo, Gosspyium hirsutum
Description: as §1, §2

Glyc. max = assay: preemergence treatment in the greenhouse, % damage; format: in vivo, Glycine max
Description: as §1, §2

Cyper. escul. [7] = assay: preemergence treatment in the greenhouse, % damage; format: in vivo, Cyperus esculentus
Description: as §1, §2

Matric. spp. [8] = assay: preemergence treatment in the greenhouse, % damage; format: in vivo
Description: as §1, §2

Sorgh. halep. = assay: preemergence treatment in the greenhouse, % damage; format: in vivo
Description: as §1, §2

Alopec. myosur. [9] = assay: preemergence treatment in the greenhouse, % damage; format: in vivo
Description: as §1, §2

Stell. med. [10] = assay: preemergence treatment in the greenhouse, % damage; format: in vivo
Description: as §1, §2

Cyp. diff. = assay: preemergence treatment in the greenhouse, % damage; format: in vivo
Description: as §1, §2

Brassica napus = assay: preemergence application in the open, % damage; format: in vivo
Description: (§3) The experiments were carried out on small plots. The soil was a sandy loam having a pH of from 5 to 6 and containing from 1 to 1.5% humus. The treatment was preemergence, the active ingredients being applied immediately or at the latest 3 days after sowing. The crop plants were sown in rows. The weed flora was made up of the most widely varying species and was natural; the weed flora depended on the time of the year and in part on the crop (e.g., spring-germinating, summer-germinating). The substances were emulsified or suspended in water as the vehicle, and applied by means of a motor-driven plot spray mounted on a hitch. When no rain fell, the plots were watered to ensure germination and growth of the crop plants and weeds. All the experiments were run for several weeks. Over this period, assessments were made at certain intervals on the 0 to 100 scale.

Anth./Matric. = assay: preemergence application in the open, % damage; format: in vivo; conditions: 2.0 kg/ha
Description: as §3

Alopec. myosur. [11] = assay: preemergence application in the open, % damage; format: in vivo
Description: as §3

Stellaria media = assay: preemergence application in the open, % damage; format: in vivo
Description: as §3

Lamium spp. = assay: preemergence application in the open, % damage; format: in vivo
Description: as §3

Sorgh. bicol. = assay: preemergence treatment in the greenhouse, % damage; format: in vivo, Sorghum bicolor
Description: as §1, §2

Zea mays = assay: preemergence treatment in the greenhouse, % damage; format: in vivo
Description: as §1, §2

Beta vulg. = assay: preemergence treatment in the greenhouse, % damage; format: in vivo, Beta vulgaris
Description: as §1, §2

## CCc1cccc(C)c1N(Cn1ccc(C)n1)C(=O)CCl [Compound 68]
Cyper. escul. [1]; 1.0 kg/ha
  % damage: 85%
Cyper. escul. [1]; 2.0 kg/ha
  % damage: 85%
Solanum nigrum; 0.25 kg/ha
  % damage: 95%
Solanum nigrum; 1.0 kg/ha
  % damage: 100%
Solanum nigrum; 2.0 kg/ha
  % damage: 100%
Setaria spp. [2]; 0.25 kg/ha
  % damage: 95%
Setaria spp. [2]; 1.0 kg/ha
  % damage: 100%
Setaria spp. [2]; 2.0 kg/ha
  % damage: 100%
Euph. gen.; 0.25 kg/ha
  % damage: 10%
Euph. gen.; 1.0 kg/ha
  % damage: 60%
Euph. gen.; 2.0 kg/ha
  % damage: 75%
Amar. retro.; 0.25 kg/ha
  % damage: 95%
Amar. retro.; 1.0 kg/ha
  % damage: 100%
Amar. retro.; 2.0 kg/ha
  % damage: 100%
Echin. c.g.; 0.25 kg/ha
  % damage: 95%
Echin. c.g.; 1.0 kg/ha
  % damage: 95%
Echin. c.g.; 2.0 kg/ha
  % damage: 95%
Matric. spp. [3]; 1.0 kg/ha
  % damage: 80%
Matric. spp. [3]; 2.0 kg/ha
  % damage: 80%
Setaria spp. [4]; 1.0 kg/ha
  % damage: 90%
Setaria spp. [4]; 2.0 kg/ha
  % damage: 95%
Avena fat.; 1.0 kg/ha
  % damage: 90%
Avena fat.; 2.0 kg/ha
  % damage: 90%
Chrys. seget.; 1.0 kg/ha
  % damage: 40%
Chrys. seget.; 2.0 kg/ha
  % damage: 50%
Alopec. myosur. [5]; 1.0 kg/ha
  % damage: 90%
Alopec. myosur. [5]; 2.0 kg/ha
  % damage: 90%
Stell. med. [6]; 1.0 kg/ha
  % damage: 60%
Stell. med. [6]; 2.0 kg/ha
  % damage: 60%
Gossyp. hirs.; 0.25 kg/ha
  % damage: 0%
Gossyp. hirs.; 1.0 kg/ha
  % damage: 5%
Gossyp. hirs.; 2.0 kg/ha
  % damage: 5%
Glyc. max; 0.25 kg/ha
  % damage: 0%
Glyc. max; 1.0 kg/ha
  % damage: 0%
Glyc. max; 2.0 kg/ha
  % damage: 10%
Cyper. escul. [7]; 0.25 kg/ha
  % damage: 65%
Cyper. escul. [7]; 1.0 kg/ha
  % damage: 80%
Cyper. escul. [7]; 2.0 kg/ha
  % damage: 80%

## Cc1ccc(C)c(N(Cn2cccn2)C(=O)CCl)c1C [Compound 14]
Matric. spp. [8]; 0.25 kg/ha
  % damage: 80%
Matric. spp. [8]; 0.5 kg/ha
  % damage: 100%
Matric. spp. [8]; 1.0 kg/ha
  % damage: 100%
Setaria spp. [2]; 0.25 kg/ha
  % damage: 100%
Setaria spp. [2]; 0.5 kg/ha
  % damage: 100%
Setaria spp. [2]; 1.0 kg/ha
  % damage: 100%
Sorgh. halep.; 0.25 kg/ha
  % damage: 95%
Sorgh. halep.; 0.5 kg/ha
  % damage: 95%
Sorgh. halep.; 1.0 kg/ha
  % damage: 100%
Alopec. myosur. [9]; 0.25 kg/ha
  % damage: 95%
Alopec. myosur. [9]; 0.5 kg/ha
  % damage: 100%
Alopec. myosur. [9]; 1.0 kg/ha
  % damage: 100%
Euph. gen.; 0.25 kg/ha
  % damage: 80%
Euph. gen.; 0.5 kg/ha
  % damage: 95%
Euph. gen.; 1.0 kg/ha
  % damage: 95%
Stell. med. [10]; 0.25 kg/ha
  % damage: 90%
Stell. med. [10]; 0.5 kg/ha
  % damage: 100%
Stell. med. [10]; 1.0 kg/ha
  % damage: 100%
Amar. retro.; 0.25 kg/ha
  % damage: 100%
Amar. retro.; 0.5 kg/ha
  % damage: 100%
Amar. retro.; 1.0 kg/ha
  % damage: 100%
Cyp. diff.; 0.25 kg/ha
  % damage: 100%
Cyp. diff.; 0.5 kg/ha
  % damage: 100%
Cyp. diff.; 1.0 kg/ha
  % damage: 100%
Echin. c.g.; 0.25 kg/ha
  % damage: 100%
Echin. c.g.; 0.5 kg/ha
  % damage: 100%
Echin. c.g.; 1.0 kg/ha
  % damage: 100%
Gossyp. hirs.; 0.25 kg/ha
  % damage: 0%
Gossyp. hirs.; 0.5 kg/ha
  % damage: 0%
Gossyp. hirs.; 1.0 kg/ha
  % damage: 15%
Glyc. max; 0.25 kg/ha
  % damage: 10%
Glyc. max; 0.5 kg/ha
  % damage: 10%
Glyc. max; 1.0 kg/ha
  % damage: 20%

## CCc1cccc(C)c1N(Cn1cncn1)C(=O)CCl [Compound 191]
Brassica napus; 2.0 kg/ha
  % damage: 5%
Brassica napus; 4.0 kg/ha
  % damage: 20%
Anth./Matric.
  % damage: 53%
Alopec. myosur. [11]; 2.0 kg/ha
  % damage: 30%
Alopec. myosur. [11]; 4.0 kg/ha
  % damage: 80%
Stellaria media; 2.0 kg/ha
  % damage: 18%
Stellaria media; 4.0 kg/ha
  % damage: 45%
Lamium spp.; 2.0 kg/ha
  % damage: 40%
Lamium spp.; 4.0 kg/ha
  % damage: 85%

## Cc1cc(C)n(CN(C(=O)CCl)c2c(C)ccc(C)c2C)n1 [Compound 47]
Matric. spp. [8]; 0.25 kg/ha
  % damage: 80%
Matric. spp. [8]; 0.5 kg/ha
  % damage: 90%
Matric. spp. [8]; 1.0 kg/ha
  % damage: 100%
Setaria spp. [2]; 0.25 kg/ha
  % damage: 100%
Setaria spp. [2]; 0.5 kg/ha
  % damage: 100%
Setaria spp. [2]; 1.0 kg/ha
  % damage: 100%
Sorgh. halep.; 0.25 kg/ha
  % damage: 85%
Sorgh. halep.; 0.5 kg/ha
  % damage: 90%
Sorgh. halep.; 1.0 kg/ha
  % damage: 95%
Alopec. myosur. [9]; 0.25 kg/ha
  % damage: 95%
Alopec. myosur. [9]; 0.5 kg/ha
  % damage: 100%
Alopec. myosur. [9]; 1.0 kg/ha
  % damage: 100%
Euph. gen.; 0.25 kg/ha
  % damage: 10%
Euph. gen.; 0.5 kg/ha
  % damage: 10%
Euph. gen.; 1.0 kg/ha
  % damage: 20%
Stell. med. [10]; 0.25 kg/ha
  % damage: 30%
Stell. med. [10]; 0.5 kg/ha
  % damage: 80%
Stell. med. [10]; 1.0 kg/ha
  % damage: 100%
Amar. retro.; 0.25 kg/ha
  % damage: 100%
Amar. retro.; 0.5 kg/ha
  % damage: 100%
Amar. retro.; 1.0 kg/ha
  % damage: 100%
Cyp. diff.; 0.25 kg/ha
  % damage: 100%
Cyp. diff.; 0.5 kg/ha
  % damage: 100%
Cyp. diff.; 1.0 kg/ha
  % damage: 100%
Echin. c.g.; 0.25 kg/ha
  % damage: 95%
Echin. c.g.; 0.5 kg/ha
  % damage: 95%
Echin. c.g.; 1.0 kg/ha
  % damage: 100%
Gossyp. hirs.; 0.25 kg/ha
  % damage: 0%
Gossyp. hirs.; 0.5 kg/ha
  % damage: 0%
Gossyp. hirs.; 1.0 kg/ha
  % damage: 0%
Glyc. max; 0.25 kg/ha
  % damage: 20%
Glyc. max; 0.5 kg/ha
  % damage: 20%
Glyc. max; 1.0 kg/ha
  % damage: 30%

## Cc1cccc(C)c1N(Cn1nc(C)c(Cl)c1C)C(=O)CCl [Compound 106]
Sorgh. bicol.; 1.0 kg/ha
  % damage: 70%
Sorgh. bicol.; 2.0 kg/ha
  % damage: 70%
Zea mays; 1.0 kg/ha
  % damage: 15%
Zea mays; 2.0 kg/ha
  % damage: 50%
Setaria spp. [2]; 1.0 kg/ha
  % damage: 90%
Setaria spp. [2]; 2.0 kg/ha
  % damage: 95%
Alopec. myosur. [9]; 1.0 kg/ha
  % damage: 100%
Alopec. myosur. [9]; 2.0 kg/ha
  % damage: 100%
Amar. retro.; 1.0 kg/ha
  % damage: 95%
Amar. retro.; 2.0 kg/ha
  % damage: 95%
Beta vulg.; 1.0 kg/ha
  % damage: 10%
Beta vulg.; 2.0 kg/ha
  % damage: 10%
Glyc. max; 1.0 kg/ha
  % damage: 10%
Glyc. max; 2.0 kg/ha
  % damage: 10%
